The term EC50 denotes the midpoint of the concentration-response curve. High values mean weaker potency, low ones greater potency. Usually IC50 stands for the midpoint of a concentration-inhibition curve. Read a low IC50 as inhibition by little substance.

Results on 11 compounds are retold here after patent US9682955B2, “Quinazoline derivatives useful as CB-1 inverse agonists” (Janssen Pharmaceutica NV, priority 2014, dated 2017).

The structures appear in SMILES notation. Values joined by “and” are separate entries in the source; they are usually repeats but may differ in a detail not shown here. Equal entries are not always repeated. Where two headings read alike, the source gives them in different places.

The target in data set [1] is Human CB1R (Cannabanoid receptor 1) (Homo sapiens (Human), UniProt P21554). In words: CB-1 in vitro cAMP assay (HTRF). The class given is cell-based. As to conditions: mean where tested more than once. Summed up: (§1)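 HEK-293 cells stably transfected with the human receptor, plated overnight at 4E5 cells/mL. Compounds given as 1/3 serial dilutions from 10 mM DMSO stocks. Stimulation in HBSS/5 mM HEPES/0.1% BSA with 0.5 mM IBMX and forskolin (1.5 μM in buffer); cAMP measured by competitive HTRF immunoassay (d2-cAMP, cryptate anti-cAMP) against a cAMP standard curve.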

Data set [2] deals with Human CB2R (Cannabanoid receptor 2) (Homo sapiens (Human), UniProt P34972). In words: CB-2 in vitro cAMP assay (HTRF). The class given is cell-based. As to conditions: mean where tested more than once. Summed up: as §1
Background: Changes in cAMP serve as a functional read-out for many G protein-coupled receptors.

A short description of data set [3]: Mouse Fast PK/BBB (plasma and brain concentration). The class given is in vivo, Male C57bl/6j mice. As to conditions: for concentration at 4 h / concentration at 1 h: male, C57bl/6j. The method, then: Male Sprague Dawley rats were ordered from Charles River (225-250 gm upon arrival). They were fed standard chow diet (Purina 5001) and housed 2 per cage. Male C57bl/6j mice were ordered from Charles River at 22-25 g and housed 3 per cage. They were fed standard chow (Purina 5001). All animals were housed in a temperature-controlled room with 12-hour light/dark cycle. Animals were given food and water ad libitum, except as noted.
[…] Test compounds were administered by oral gavage (5 ml kg^−1).
Male C57bl/6j mice were dosed with test compounds at 30 mg/kg. Plasma was collected via retro-orbital bleeding at 1 hr and 4 hrs after dosing. Whole brain without cerebellum was collected at 4 hrs after dosing. Wet brain weight was recorded before freezing. Brains were homogenized in saline and sent for analysis for determination of concentration of test compound.
Tables 6A and 6B below present results for representative compounds of the present invention, tested according to the procedure as described above. Each compound was tested in three animals (N=3) and administered PO at 20 mg/kg or 30 mg/kg.

In data set [4] the target is hCB1-CHO-K1 membranes (Homo sapiens (Human), UniProt P21554). The experiment in a line: CB-1 membrane binding assay ([3H] CP 55,940 displacement). Particulars: [3H] CP 55,940 0.4 nM. The method, then:
Into Greiner V bottom polypropylene plates, hCB1-CHO-K1 membranes (2 μg/well final concentration) in assay buffer (50 mM Tris-HCl pH 7.4, 5 mM MgCl2 and 0.5 mg/ml (0.05%) Ultra fatty acid free BSA) were dispensed. Membranes were purchased from Perkin Elmer. Test compounds were then added to each well and then [^3H] CP 55, 940 (0.4 nM final well concentration) in assay buffer (50 mM Tris-HCl pH 7.4, 5 mM MgCl2 and 0.5 mg/ml (0.05%) Ultra fatty acid free BSA) was added. Samples were mixed and incubated for 90 min at 30° C. in the Greiner V Bottom Polypropylene plate. After incubation, assay reagents were transferred to a blocked 384 well polypropylene filter plates. The binding reaction was stopped by filtration and washed seven times with ice cold rinse buffer. Filter plates were then dried overnight at room temperature. The next day, plate bottoms were sealed with plate tape and 15 μl MicroScint 20 was added to each well. Plates were incubated for 2h and radioactivity was measured by Topcount.
Total Binding levels were achieved by combining membrane, DMSO, and [^3H] CP-55,940 (also known as 5-(1,1-dimethylheptyl)-2-[(1R,2R,5R)-5-hydroxy-2-(3-hydroxypropyl)cyclohexyl]-phenol). […]
IC50 data was calculated using raw CPM values. […] IC50 values were fit appropriately and calculated using the following equation: […]

Where [5] appears, read: PO 20 mg/kg, 10% PEG400 and 10% Solutol in water, 1 hr, individual animals.
[6] abbreviates: PO 20 mg/kg, 10% PEG400 and 10% Solutol in water, 4 hr, individual animals.
[7] abbreviates: PO 30 mg/kg, 5% NMP and 20% HPβCD ~pH8 in water, 1 hr, individual animals.
The mark [8] stands for this setting: PO 30 mg/kg, 5% NMP and 20% HPβCD ~pH8 in water, 4 hr, individual animals.
The mark [9] stands for this setting: plasma, PO 30 mg/kg, 1 hr, N=3, read-out: PLASMA Mean Conc. ± Std. Dev.

Chain of Human CB2R (Cannabanoid receptor 2) (P34972 whole entry): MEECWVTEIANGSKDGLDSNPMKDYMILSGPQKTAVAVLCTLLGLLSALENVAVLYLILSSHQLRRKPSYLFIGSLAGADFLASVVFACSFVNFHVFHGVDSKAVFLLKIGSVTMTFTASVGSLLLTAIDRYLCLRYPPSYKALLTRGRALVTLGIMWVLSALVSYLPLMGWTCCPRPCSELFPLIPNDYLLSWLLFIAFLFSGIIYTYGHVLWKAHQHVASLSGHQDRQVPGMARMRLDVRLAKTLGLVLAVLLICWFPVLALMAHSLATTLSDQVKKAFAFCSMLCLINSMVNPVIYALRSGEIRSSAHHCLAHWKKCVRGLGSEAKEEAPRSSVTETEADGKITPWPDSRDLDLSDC
Chain of Human CB1R (Cannabanoid receptor 1) (P21554 whole entry): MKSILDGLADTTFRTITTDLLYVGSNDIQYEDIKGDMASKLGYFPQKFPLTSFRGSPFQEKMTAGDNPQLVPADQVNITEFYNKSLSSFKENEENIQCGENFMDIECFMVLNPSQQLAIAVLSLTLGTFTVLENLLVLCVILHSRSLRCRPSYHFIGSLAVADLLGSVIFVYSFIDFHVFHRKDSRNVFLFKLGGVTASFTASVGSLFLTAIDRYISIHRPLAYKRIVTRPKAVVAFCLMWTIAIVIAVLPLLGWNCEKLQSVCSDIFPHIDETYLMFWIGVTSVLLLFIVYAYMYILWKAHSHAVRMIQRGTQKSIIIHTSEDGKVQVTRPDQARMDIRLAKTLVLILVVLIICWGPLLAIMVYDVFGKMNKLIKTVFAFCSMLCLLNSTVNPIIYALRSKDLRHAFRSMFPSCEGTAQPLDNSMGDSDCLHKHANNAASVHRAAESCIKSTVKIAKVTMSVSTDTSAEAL
Chain of hCB1-CHO-K1 membranes (P21554 whole entry): as above

On to `O=C(O)c1ccc(S(=O)(=O)N2CCC(Nc3ncnc4ccc(C(c5ccc(Cl)cc5)c5ccc(Cl)cc5)cc34)CC2)cc1` [Compound #93, 4-((4-((6-(bis(4-chlorophenyl)methyl)quinazolin-4-yl)amino)piperidin-1-yl)sulfonyl)benzoic acid], for which the concentration for a half-maximal effect (EC50) in data set [1] was 14 nM; in data set [2], 323 nM. In addition, the “BRAIN Range of Conc.” value in data set [3] (setting [5]) is “ND, ND, ND”; in data set [3] (setting [6]), “ND, ND, ND”; in data set [3] (setting [7]), “BLOQ, BLOQ,”; in data set [3] (setting [8]) it was “BLOQ, BLOQ,”. Moreover, the “PLASMA Range of Conc.” value in data set [3] (setting [5]) was “ND, BLOQ, ND”; in data set [3] (setting [6]) it was 17.155 ng/mL and 6.427 ng/mL; in data set [3] (setting [7]), 280 ng/mL and 9.10 ng/mL and 9.00 ng/mL; in data set [3] (setting [8]), “BLOQ, BLOQ,”. Moreover, the concentration at 4 h in data set [3] (plasma, PO 20 mg/kg, 10% PEG400 and 10% Solutol in water, 4 hr, individual animals, read-out: PLASMA Range of Conc.) stood at 16.1 ng/mL.
`OCC(CO)(CO)COc1nc(NCc2cccc(C(F)(F)F)c2)c2cc(C(c3ccc(Cl)cc3)c3ccc(Cl)cc3)ccc2n1` [Compound #54, 2-(((6-(bis(4-chlorophenyl)methyl)-4-((3-(trifluoromethyl)benzyl)amino)quinazolin-2-yl)oxy)methyl)-2-(hydroxymethyl)propane-1,3-diol]: the EC50 in data set [1] is 21 nM; in data set [2], 4460 nM. The “BRAIN Mean Conc. ± Std. Dev” value was “BLOQ ± NA” in data set [3] (PO 30 mg/kg, 1 hr, N=3) and “BLOQ ± NA” in data set [3] (PO 30 mg/kg, 4 hr, N=3). Also, the concentration at 1 h in data set [3] (setting [9]) worked out at 946 ± 99.4 ng/mL. Also, the concentration at 4 h in data set [3] (plasma, PO 30 mg/kg, 4 hr, N=3, read-out: PLASMA Mean Conc. ± Std. Dev) is 1300 ± 155 ng/mL.
As to `FC(F)(F)c1ccc(CNc2ncnc3ccc(C(c4ccc(Cl)cc4)c4ccc(Cl)cc4)cc23)cc1` [compound 138, 6-(bis(4-chlorophenyl)methyl)-N-(4-(trifluoromethyl)benzyl)quinazolin-4-amine], the EC50 was 11 nM in data set [1] and over 10000 nM in data set [2]. Further, the concentration at 1 h in data set [3] (brain, PO 20 mg/kg, 1 hr, N=3, read-out: BRAIN Mean Conc. ± Std. Dev) stood at 61.7 ± 22.6 ng/mL; in data set [3] (plasma, PO 20 mg/kg, 1 hr, N=3, read-out: PLASMA Mean Conc. ± Std. Dev), 3300 ± 537 ng/mL. Besides, the concentration at 4 h worked out at 192 ± 14 ng/mL in data set [3] (brain, PO 20 mg/kg, 4 hr, N=3, read-out: BRAIN Mean Conc. ± Std. Dev) and 3790 ± 743 ng/mL in data set [3] (plasma, PO 20 mg/kg, 4 hr, N=3, read-out: PLASMA Mean Conc. ± Std. Dev).
On to `CS(=O)(=O)N1CCC(Nc2ncnc3ccc(C(c4ccc(Cl)cc4)c4ccc(Cl)cc4)cc23)CC1` [Compound #140, 6-(bis(4-chlorophenyl)methyl)-N-(1-(methylsulfonyl)piperidin-4-yl) quinazolin-4-amine], for which the EC50 in data set [1] was found to be 24 nM; in data set [2] it was 2450 nM. The same compound came in with an IC50 in data set [4] of 74 nM.
Turning to `N=C(N)c1ccc(S(=O)(=O)N2CCC(Nc3ncnc4ccc(C(c5ccc(Cl)cc5)c5ccc(Cl)cc5)cc34)CC2)cc1` [Compound #47, 4-((4-((6-(bis(4-chlorophenyl)methyl)quinazolin-4-yl)amino)piperidin-1-yl)sulfonyl)benzimidamide], the results for the EC50 in data set [1] and in data set [2] were 10 nM and 3920 nM, respectively. In addition, the “BRAIN Mean Conc. ± Std. Dev” value in data set [3] (PO 30 mg/kg, 1 hr, N=3) is “BLOQ ± NA”; in data set [3] (PO 30 mg/kg, 4 hr, N=3), “BLOQ ± NA”. The “PLASMA Mean Conc. ± Std. Dev” value in data set [3] (PO 30 mg/kg, 4 hr, N=3) is recorded as “BLOQ ± NA”. In addition, the concentration at 1 h in data set [3] (setting [9]) is 7.83 ± 1.08 ng/mL.
Take `NC(=O)c1cccc(N2CCC(Nc3ncnc4ccc(C(c5ccc(Cl)cc5)c5ccc(Cl)cc5)cc34)CC2)c1` [compound 96, 3-(4-(6-(bis(4-chlorophenyl)methyl)quinazolin-4-ylamino)piperidin-1-yl)benzamide]: the concentration giving a half-maximal response (EC50) in data set [1] turned out to be 23 nM; in data set [2], 218 nM.
Turning to `CN(Cc1ccc(C(F)(F)F)cc1)c1ncnc2ccc(C(c3ccc(Cl)cc3)c3ccc(Cl)cc3)cc12` [Compound #132, 6-(bis(4-chlorophenyl)methyl)-N-methyl-N-(4-(trifluoromethyl)benzyl)quinazolin-4-amine], the half-maximal effective concentration (EC50) in data set [1] was 173 nM; in data set [2], over 14000 nM.
For `Clc1ccc(C(c2ccc(Cl)cc2)c2ccc3ncnc(NC4CCN(c5ccccn5)CC4)c3c2)cc1` [Compound #130, 6-(bis(4-chlorophenyl)methyl)-N-(1-(pyridin-2-yl)piperidin-4-yl)quinazolin-4-amine] the same measures were 2 nM and 154 nM.
`O=C(NC(CO)(CO)CO)c1ccc(N2CCC(Nc3ncnc4ccc(C(c5ccc(Cl)cc5)c5ccc(Cl)cc5)cc34)CC2)cc1` [compound 42]: the EC50 came out at 180 nM in data set [1] and 216 nM in data set [2].
The corresponding values for `O=C(O)c1cccc(CCN2CCC(Nc3ncnc4ccc(C(c5ccc(Cl)cc5)c5ccc(Cl)cc5)cc34)CC2)c1` [Compound #13, 3-(2-(4-(6-(bis(4-chlorophenyl)methyl)quinazolin-4-ylamino)piperidin-1-yl)ethyl)benzoic acid] are 1240 nM and 3050 nM.
The corresponding values for `CCOC(=O)CCC(=O)N1CCC(Nc2ncnc3ccc(C(c4ccc(Cl)cc4)c4ccc(Cl)cc4)cc23)CC1` [Compound #81, Ethyl 4-(4-((6-(bis(4-chlorophenyl)methyl)quinazolin-4-yl)amino)piperidin-1-yl)-4-oxobutanoate] are 2 nM and 452 nM.
